# Laboratory results as given in US20240425808A1, “A METHOD FOR RAPID GENERATION OF 3D ORGANOTYPIC CELL CLUSTERS” (THE TRUSTEES OF INDIANA UNIVERSITY, priority 2022, published 2024).
# Key:
# Type in all cases: cell-based, human
# [1] = tested on: tumor cells within RCC derived APCCs; assay: Tumor cell death within APCCs by time-lapse imaging; conditions: 24-hour time lapse, anti-PD1 5 μg/mL
# Protocol: To evaluate the preservation of MDSC viability inside APCCs, initial tests were performed with renal cell carcinoma (RCC) primary tumors from patients. For MDSC study, the CD15+ cells were first isolated from dissociated patient tumor cells via magnetic microbeads, which consist of tumor infiltrating neutrophils including immunosuppressive polymorphonuclear myeloid derived suppressor cells (PMN-MDSCs). The CD15+ cells were pre-labelled with DiL membrane dyes (shown as yellow). T cells were isolated via a 1:1 mixture of CD4 and CD8 microbeads and pre-labeled the T cells with DiO membrane dyes. The CD15+, CD4+, CD8+ depleted dissociated tumor cells were labeled with the blue CMAC cell tracker dye. Membrane impermeable cell nucleus staining NucRed dead 647 was added to indicate cell death. The cell death of the CD15+ cells was calculated by analyzing co-localization of Dil labeled MDSCs and NucRed cell death indicator dye over time-lapse imaging (FIG. 2A).
# MDSC-targeting drugs alone and/or in combination with ICIs. […] The tumor cell death over a 24-hour time lapse was observed. […]
# Digested tumor cells were equally divided into 3 tubes. […] Before acoustic assembly, 1 drop of NucRed Dead 647 ReadyProbes (Invitrogen) was added to 1 milliter of cell suspensions and left in medium to visualize cell death over time. […]
# [2] = tested on: IFN-γ gene expression in CD4/CD8+ T cells; assay: qRT-PCR of IFN-γ expression in CD4/CD8+ T cells isolated from APCCs; conditions: n=3
# Protocol: (§1) Cabozantinib (SelleckChem) was added at 10 μM to the APCCs.
# (§2) For qRT-PCR analysis of the CD15+ cells and CD4/8+ T cells, CD15+ cells or CD4/8+ T cells were pre-labeled by CD15 or CD4-and-CD8 (1:1) magnetic beads for 15 minutes at 4° C. respectively before mixed with other tumor cells for acoustic assembly. The CD15+ cells or CD4/8+ T cells with the labeling beads were then assembled into APCCs. To analyze their gene expression profiles, the APCCs were digested by with cell recovery solution (Corning), and input onto MACS columns (Miltenyi) for positive magnetic separation to isolate pure CD15+ cells or T cells (CD4+ or CD8+). The purified CD15+ cells or CD4/8+ T cells were then lysed for RNA extraction by RNeasy Mini Kit (Qiagen), reverse transcribed to cDNA by High-Capacity cDNA Reverse Transcription Kit (Applied Biosystems), and analyzed using corresponding primer pairs (Table 2) and SYBR Green PCR Master Mix (Applied Biosystems). The samples were run on a StepOne Real Time PCR machine (Applied Biosystems) to quantify signals. The results were analyzed using AACt method for fold change analysis.
# TNF-α = assay: ELISA analysis of TNF-α in APCC culture supernatants; conditions: n=3
# Protocol: (§3) The levels of TNF-α and IFN-γ were elevated in the APCCs treated with anti-PD1. […] (FIG. 4B).
# as §1
# (§4) To perform cytokine analysis on the APCCs and 2D tumor cultures, 50 μL supernatants were pipetted out of the culture vessel and centrifuged at 10,000 g for 10 minutes to remove cell debris. The supernatants were then analyzed by human TNF-α or IFN-γ kits (Tribioscience).
# IFN-γ = assay: ELISA analysis of IFN-γ in APCC culture supernatants; conditions: n=3
# Protocol: as §3, §1, §4
# [3] = tested on: TNF-α gene expression in CD4/CD8+ T cells; assay: qRT-PCR of TNF-α expression in CD4/CD8+ T cells isolated from APCCs; conditions: n=3
# Protocol: as §1, §2
# [4] = APCCs without CD15+ cells, 24 hours post-treatment
# [5] = T cells isolated from APCCs 24 hours post-treatment
substance,measurement,setting,value
Pembrolizumab [anti-PD1],increase in tumor cell death as compared to untreated control,"[1]; APCCs from 3 RCC patient primary tumors, Cabozantinib 10 μM",about 17.0%±9.4%
same,"increase in tumor cell death as compared to untreated control, APCCs without CD15+ cells",[1]; APCCs without CD15+ cells (MDSCs removal),about 40.9%±9.4%
same,"IFN-γ gene expression in CD4/CD8+ T cells, APCCs without CD15+ cells",[2]; [4],highest
same,IFN-γ gene expression in CD4/CD8+ T cells,[2]; [5],enhanced
same,"TNF-α level in culture supernatant, APCCs without CD15+ cells",TNF-α; APCCs without CD15+ cells,further elevated
same,TNF-α level in culture supernatant,"TNF-α; RCC APCCs, vs control",elevated
same,"IFN-γ level in culture supernatant, APCCs without CD15+ cells",IFN-γ; APCCs without CD15+ cells,further elevated
same,IFN-γ level in culture supernatant,"IFN-γ; RCC APCCs, vs control",elevated
same,"TNF-α gene expression in CD4/CD8+ T cells, APCCs without CD15+ cells",[3]; [4],highest
same,TNF-α gene expression in CD4/CD8+ T cells,[3]; [5],enhanced
